Data: patent publication US4067997A, “Synergistic microbecidal composition and method” (priority 1976, dated 1978)
≈ marks a conversion by molar mass, not a printed value. Counter-ions that a name gives are not always drawn. Like-named read-outs stand apart in the source and are kept apart here.

Legend:
Format in all cases: cell-based
Staphylococcus aureus = assay: MIC on mass basis (Example V procedure); conditions: Staphylococcus aureus, read-out: MIC
Experimental: (§1) The essential procedure of Example I was followed with a series of phenolic compounds, with the exception that the test method was conducted on a mass (μg/ml) basis rather than a molecular (mol/ml) basis of the foregoing tests, since the long established phenol-coeffecient test is on a mass rather than molecular basis. Additionally, a different but closely related group of organisms were used in this test, in order to give a complete representative span on gram-negative, gram-positive and fungus organisms. Additionally, the phenolic derivatives chosen for test purposes include a number of derivatives which are presently accepted by the FDA as food-grade phenolic microbicides.
(§2) The same procedure of Example V was repeated but with combinations of mono-laurin (GML).
(§3) The procedure of Example V was repeated with combinations of glycerol mono-laurin (GML) and ethylenediamine tetraacetic acid (EDTA) as the calcium salt and in combination with BHA.

Nocardia asteroides = assay: MIC on mass basis (Example V procedure)
Experimental: as §1, §2, §3

Escherichia coli = assay: MIC on mass basis (Example V procedure); conditions: Escherichia coli, read-out: MIC
Experimental: as §1, §2, §3

Candida albicans = assay: MIC on mass basis (Example V procedure); conditions: Candida albicans, read-out: MIC
Experimental: as §1, §2, §3

Saccharomyces cerevisiae = assay: MIC on mass basis (Example V procedure); conditions: Saccharomyces cerevisiae, read-out: MIC
Experimental: as §1, §2, §3

Pseudomonas aeruginosa = assay: MIC on mass basis (Example V procedure); conditions: Pseudomonas aeruginosa, read-out: MIC
Experimental: as §1, §2, §3

Streptococcus pyogenes = assay: MIC on mass basis (Example V procedure)
Experimental: as §1

Corynebacterium sp. = assay: MIC on mass basis (Example V procedure)
Experimental: as §1

[1] = tested on: Streptococcus faecalis (Group D); assay: MIC on mass basis (Example V procedure); conditions: Enterococcus faecalis, read-out: MIC
Experimental: as §1

[2] = tested on: nine gram-positive organisms and the yeast/fungus Candida; assay: MIC, broth dilution, over all organisms (Examples I/II)
Experimental: In order to establish comparative bactericidal and fungicidal results with homologous fatty acids, a series of experiments was performed with thirty straight-chain fatty acids and derivatives thereof. Eight different gram-negative and twelve different gram-positive organisms, representing a very broad spectrum of organisms, were used in these experiments including the fungus Candida (a yeast). Additionally, fatty acids were chosen to show the effects of saturation versus unsaturation, in the fatty acid claim. Standard solutions of the fatty acids and their derivatives were prepared by first dissolving the weighed compounds in 1 to 2 ml of 95% ethanol and immediately pouring this solution into 200 ml of Tripticase Soy Broth. These lipid compounds which are insoluble in water and broth precipitated into very small crystals or droplets. The tubes containing the suspension were warmed to approximately 70° C and were then placed in an ultrasonic tank for further solubilization of the lipid derivatives.
Standard solutions (or suspensions) at 1,000 μg/ml were twofold serially diluted with additional broth to a concentration of 125 μg/ml. A 4-ml amount of each dilution was then quickly, and with constant agitation, dispensed into appropriately labeled screw-capped glass tubes (16 by 125 mm). The tubes were sterilized with steam at 15 psi for 15 minutes. After sterilization, all tubes were cooled and incubated overnight at 35° C to insure sterility.
All compounds were compared on a molar (micromoles/milliliter) rather than on a mass basis. In the following lists of organisms used, those followed by a parenthetical number are registered with the American Type Culture Collection (ATCC); the remainder were isolates from Providence Hospital or Northland Laboratory.
Staphylococcus aureus, S. epidermidis, beta-hemolytic streptococci (Group A and non-group A), group D streptococcus, Bacillus subtilis (6051), Sarcina lutea (9431), Micrococcus sp., Candida albicans, Nocardia asteroids (3308), Corynebacterium sp. (10700), and pneumococcus (63001).
One drop (0.04 ± 0.01 ml) of an 18-hr broth culture containing 10^7 and 10^9 organisms/ml was added to each dilution of the test compound, as well as to a tube of plain broth which served as the positive control. After inoculation, the contents of each tube were well mixed, and the tubes were incubated at 35° C in a 5% carbon dioxide + […] atmosphere.
The MIC is defined as the lowest concentration of compound at which no […] evidence of growth was observed when turbidity of the inoculated broth dilutions was compared with control tubes. […] Only a one-tube difference between the bactericidal and bacteriostatic concentrations was normally observed.
Table 5 presents a comparison of the C10 and C12 free acids and their glyceryl derivatives, and Table 6 gives the corresponding ranges of activity.
Standard solutions (1000 μg/ml) of three fatty acids and polyglycerol esters thereof were prepared as described in Example I. Also sucrose esters were prepared by transferring the weighed compounds (0.2 gm. dissolved in 1 ml absolute methanol) into 200 ml of sterile Trypticase Soy Broth (TSB). These standard solutions (1000 μg/ml) were twofold serially diluted with additional sterile broth to a concentration of 125 μg/ml. A 3.8 aliquot of each dilution was asceptically delivered into sterile screw-capped culture tubes. All tubes were incubated overnight at 36° C to insure sterility. The microorganisms used in this example were the same as those used in Example I.
The inoculum, 0.05 ml of an 13-24 hour TSB culture (approximately 10^9 organisms/ml) was asceptically delivered into all dilutions of the compounds, mixed well, and incubated at 36° C. […]

[3] = Table 12, Staphylococcus aureus
[4] = Table 12, Nocardia asteroides, read-out: MIC
[5] = Table 12, Saccharomyces cerevisiae
[6] = Table 12, Pseudomonas aeruginosa
[7] = Table 12, Streptococcus pyogenes, read-out: MIC
[8] = Table 12, Corynebacterium sp., read-out: MIC
[9] = Table 12, Streptococcus faecalis (Group D)
[10] = Table 2, range over the organisms of Table 1, read-out: MIC range

## CCCCCCCCCCc1cc(C(C)(C)C)c(O)c(C(C)(C)C)c1 [C10, 2,6-di-tert-4-decylphenol]
Staphylococcus aureus; [3]
  MIC: > 5000 µg/mL
Nocardia asteroides; [4]
  MIC: 5000 µg/mL
Escherichia coli; Table 12, Eschericia coli
  MIC: > 5000 µg/mL
Candida albicans; Table 12, Candida albicans
  MIC: > 5000 µg/mL
Saccharomyces cerevisiae; [5]
  MIC: > 5000 µg/mL
Pseudomonas aeruginosa; [6]
  MIC: > 5000 µg/mL
Streptococcus pyogenes; [7]
  MIC: > 5000 µg/mL
Corynebacterium sp.; [8]
  MIC: 5000 µg/mL (≈ 14.4 mM)
[1]; [9]
  MIC: > 5000 µg/mL

## CCCCc1cc(C(C)(C)C)c(O)c(C(C)(C)C)c1 [C4, 2,6-di-tert-4-butylphenol]
Staphylococcus aureus; [3]
  MIC: > 5000 µg/mL
Nocardia asteroides; [4]
  MIC: 500 µg/mL
Escherichia coli; Table 12, Eschericia coli
  MIC: > 5000 µg/mL
Candida albicans; Table 12, Candida albicans
  MIC: > 5000 µg/mL
Saccharomyces cerevisiae; [5]
  MIC: > 5000 µg/mL
Pseudomonas aeruginosa; [6]
  MIC: > 5000 µg/mL
Streptococcus pyogenes; [7]
  MIC: 5000 µg/mL (≈ 19.1 mM)
Corynebacterium sp.; [8]
  MIC: 1000 µg/mL (≈ 3.81 mM)
[1]; [9]
  MIC: > 5000 µg/mL

## Triglycerol oleate
[2]; Table 7, one entry across all (oleic acid: all other than Grp. A) organisms, NO INHIBITION, max. tested listed
  MIC: > 1980 µM
[2]; at the concentration tested
  Activity in words: no activity at the concentration tested

## CCCCCCCCCCCCCC(=O)O [Myristic]
[2]; read-out: MIC range
  MIC: 218 to 4370 µM (≈ 49.8 to 998 µg/mL)

## CCCCCCCCc1cc(C(C)(C)C)c(O)c(C(C)(C)C)c1 [C8, 2,6-di-tert-4-octylphenol]
Staphylococcus aureus; [3]
  MIC: > 5000 µg/mL
Nocardia asteroides; [4]
  MIC: 5000 µg/mL
Escherichia coli; Table 12, Eschericia coli
  MIC: > 5000 µg/mL
Candida albicans; Table 12, Candida albicans
  MIC: > 5000 µg/mL
Saccharomyces cerevisiae; [5]
  MIC: > 5000 µg/mL
Pseudomonas aeruginosa; [6]
  MIC: > 5000 µg/mL
Streptococcus pyogenes; [7]
  MIC: > 5000 µg/mL
Corynebacterium sp.; [8]
  MIC: 5000 µg/mL (≈ 15.7 mM)
[1]; [9]
  MIC: > 5000 µg/mL

## CCCCCCCCCCCCN [Dodecylamine HCl]
[2]; read-out: MIC range
  MIC: 28 to 112 µM

## CCCC/C=C\CCCCCCCC(=O)O [Myristoleic]
[2]; [10]
  MIC: 55 to 552 µM (≈ 12.4 to 125 µg/mL)

## CCCCCC/C=C\CCCCCCCC(=O)O [Palmitoleic]
[2]; [10]
  MIC: 24 to 983 µM (≈ 6.11 to 250 µg/mL)

## Cc1cc(C(C)(C)C)c(O)c(C(C)(C)C)c1 [BHT, 2,6-di-tert-butyl-4-methylphenol]
Staphylococcus aureus; [3]
  MIC: > 5000 µg/mL
Staphylococcus aureus; Table 16, Staphylococcus aureus, no unit in table
  MIC: > 1000 µg/mL
Nocardia asteroides; [4]
  MIC: 1000 µg/mL
Nocardia asteroides; Table 16, Nocardia asteroides, no unit in table
  MIC: 1,000
Escherichia coli; Table 12, Eschericia coli
  MIC: > 5000 µg/mL
Escherichia coli; Table 16, Escherichia coli, no unit in table (Example 5 procedure, mass basis)
  MIC: > 1000 µg/mL
Candida albicans; Table 12, Candida albicans
  MIC: > 5000 µg/mL
Candida albicans; Table 16, Candida albicans, no unit in table
  MIC: > 1000 µg/mL
Saccharomyces cerevisiae; [5]
  MIC: > 5000 µg/mL
Saccharomyces cerevisiae; Table 16, Saccharomyces cerevisiae, no unit in table
  MIC: > 1000 µg/mL
Pseudomonas aeruginosa; [6]
  MIC: > 5000 µg/mL
Pseudomonas aeruginosa; Table 16, Pseudomonas aeruginosa, no unit in table
  MIC: > 1000 µg/mL
Streptococcus pyogenes; [7]
  MIC: 1000 µg/mL (≈ 4.54 mM)
Streptococcus pyogenes; Table 16, Streptococcus pyogenes, no unit in table
  MIC: 1,000
Corynebacterium sp.; [8]
  MIC: 100 µg/mL (≈ 0.454 mM)
Corynebacterium sp.; Table 16, Corynebacterium sp., no unit in table
  MIC: 100
[1]; [9]
  MIC: > 5000 µg/mL
[1]; Table 16, Streptococcus faecalis (Group D), no unit in table
  MIC: > 1000 µg/mL

## CCCCCCCCCC(=O)O [Capric acid, capric acid]
[2]; [10]
  MIC: 1450 to 5800 µM (≈ 250 to 999 µg/mL)
[2]; Table 6, range over the organisms of Table 5, NI = no inhibition
  MIC range: 1.45 - 5.8 μ/Mol/ml
